Blank lines part the entries; values can stand above or below the substance they belong to. Where no end group is shown, it is not given here. SMCC = N-(4-carboxy-cyclohexyl-methyl)-maleimide cross-linker
How the values were obtained:
[1] = system: Swiss 3T3.A31; experiment: [3H]-thymidine uptake assay on fibroblast cells in culture; assay type: cell-based, murine; conditions: for stimulatory (mitogenic) effect, thymidine uptake: FIG. 1
Protocol: 2) Effect of PDGF Peptides on Fibroblast Cells in Culture The stimulatory or inhibitory effect of the peptides on the murine fibroblast cell line Swiss 3T3.A31 were investigated using the [^3H]-thymidine uptake assay as described by Raines & Ross. The peptides were tested for their ability to stimulate thymidine uptake in the cells in culture.

[2] = system: 3T3 cells; experiment: 125I-PDGF-BB binding inhibition assay, 3T3 cells; set-up: species or system murine; conditions: at the concentrations tested, FIG. 2A
Protocol: (§1) 3) Effect of PDGF Peptides on ^125I-PDGF-BB Binding to 3T3 Cells and Human Smooth Muscle Cells p PDGF-BB binding inhibition assay was performed as described by Engstrom et al. A murine fibroblast cell line 3T3.A31 and human aortic smooth muscle cells were used.

[3] = system: corresponding immunising peptide; experiment: ELISA titre of polyclonal antisera; assay type: binding; conditions: rabbits immunised with peptide linked to thyroglobulin, FIGS. 3A, 3B
Protocol: (§2) Rabbits and mice were immunised with the peptides either in the free form mixed with Freund's adjuvant or conjugated to a carrier protein (Thyroglobulin or keyhole haemocyanin). Antisera were tested for antibody production to the peptides and PDGF using ELISA, dot blot assays and SDS-PAGE followed by Western blotting.

[4] = system: human smooth muscle cells; experiment: 125I-PDGF-BB binding inhibition assay, human smooth muscle cells (peptides); conditions: FIG. 2B
Protocol: as §1

[5] = molecular target: T1, PDGF (Homo sapiens, UniProt P01127); experiment: Western blot vs native PDGF; assay type: binding; conditions: polyclonal antisera
T1 construct: both chains undergo proteolytic cleavage at the N-termini during maturation; The B chain is also processed at the C-terminal end
Protocol: as §2

[6] = system: PDGF receptor; conditions: cited from earlier work
[7] = molecular target: PDGF β-receptors (Homo sapiens, UniProt P09619); conditions: reference [6]; cited from earlier work
[8] = system: smooth muscle cells of injured arteries; conditions: administration of PDGF, rat, reference [19]; cited from earlier work
[9] = system: large bed sores; conditions: locally applied, reference [31]; cited from earlier work

T1 sequence (P01127 82-190 limits assumed): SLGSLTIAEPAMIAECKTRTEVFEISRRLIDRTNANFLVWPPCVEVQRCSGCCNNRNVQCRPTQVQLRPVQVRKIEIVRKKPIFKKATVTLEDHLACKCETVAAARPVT
Chain of PDGF β-receptors (P09619 33-1106): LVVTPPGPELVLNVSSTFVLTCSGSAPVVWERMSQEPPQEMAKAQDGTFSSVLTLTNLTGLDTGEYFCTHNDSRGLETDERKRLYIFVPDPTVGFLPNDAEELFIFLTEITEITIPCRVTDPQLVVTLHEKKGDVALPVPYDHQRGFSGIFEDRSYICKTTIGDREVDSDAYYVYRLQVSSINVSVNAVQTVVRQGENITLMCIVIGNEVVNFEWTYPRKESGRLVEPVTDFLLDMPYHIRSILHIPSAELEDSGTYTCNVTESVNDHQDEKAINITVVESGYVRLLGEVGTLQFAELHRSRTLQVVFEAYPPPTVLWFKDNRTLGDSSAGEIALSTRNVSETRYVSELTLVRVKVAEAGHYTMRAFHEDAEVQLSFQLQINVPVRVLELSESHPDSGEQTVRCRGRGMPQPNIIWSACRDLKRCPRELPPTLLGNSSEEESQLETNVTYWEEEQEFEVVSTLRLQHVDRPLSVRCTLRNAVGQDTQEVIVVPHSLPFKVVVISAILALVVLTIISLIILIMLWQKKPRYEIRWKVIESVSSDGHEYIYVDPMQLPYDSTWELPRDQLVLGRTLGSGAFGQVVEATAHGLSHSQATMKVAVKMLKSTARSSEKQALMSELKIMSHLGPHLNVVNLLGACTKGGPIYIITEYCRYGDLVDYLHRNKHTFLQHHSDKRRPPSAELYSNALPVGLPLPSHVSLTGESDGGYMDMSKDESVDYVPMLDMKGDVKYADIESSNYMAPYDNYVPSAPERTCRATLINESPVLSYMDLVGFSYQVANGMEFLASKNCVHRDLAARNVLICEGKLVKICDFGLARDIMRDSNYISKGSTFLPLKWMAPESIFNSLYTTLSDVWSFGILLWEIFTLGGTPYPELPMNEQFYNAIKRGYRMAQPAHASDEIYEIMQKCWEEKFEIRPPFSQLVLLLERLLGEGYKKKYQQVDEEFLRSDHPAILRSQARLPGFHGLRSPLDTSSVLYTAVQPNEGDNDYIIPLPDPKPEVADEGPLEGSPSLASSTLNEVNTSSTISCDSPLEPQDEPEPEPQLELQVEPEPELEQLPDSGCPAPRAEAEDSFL

Substance: AC-^73R-K-I-E-I-V-R-K-K^81-C (Ac-RKIEIVRKKC) [GP8]
- stimulatory (mitogenic) effect, thymidine uptake [1]: not as stimulatory as GP4
- inhibition of binding of radiolabelled PDGF-BB to 3T3 cells [2]: modest inhibition
- antibodies to the corresponding immunising peptide by ELISA [3]: high titre antibodies

Substance: Ac-^25I-S-R-R-L-I-D-R-T-N-A-N-F-L-V-W-P-P-C^43-(SMCC)-^73R-K-I-E-I-V-R-K-K^81-C (Ac-ISRRLIDRTNANFLVWPPC(SMCC)RKIEIVRKKC; also: SMCC joins Cys43 (pos 19) to Arg73 (pos 20) in place of a peptide bond) [GP20]
- inhibition of labelled PDGF binding to human smooth muscle cells [4]: potent inhibitors

- antibodies produced by the peptide reacted with native PDGF (Western immunoblot) [5]: reacted with the native PDGF
Substance: Ac-^25I-S-R-R-L-I-D-R-T-N-A-N-F-L^38-C (Ac-ISRRLIDRTNANFLC) [GP4]
- stimulatory (mitogenic) effect, thymidine uptake [1]: highest stimulatory effect
- mitogenic effect upon reduction and alkylation of the C-terminal end cysteine residue ([1]; reduced and alkylated peptide): almost completely abolished
- inhibition of binding of radiolabelled PDGF-BB to 3T3 cells [2]: modest inhibition
- antibodies to the corresponding immunising peptide by ELISA [3]: high titre antibodies

Substance: Ac-^25I-S-R-R-L-I-D-R-T-N-A-N-F-L^38 (Ac-ISRRLIDRTNANFL) [GP2]
- stimulatory (mitogenic) effect, thymidine uptake [1]: low stimulatory effect

Substance: polylysin
- inhibition of PDGF binding to its receptor [6]: inhibit PDGF binding to its receptor

Substance: protamine sulphate
- inhibition of PDGF binding to its receptor [6]: inhibit PDGF binding to its receptor

- antibodies produced by the peptide reacted with native PDGF (Western immunoblot) [5]: reacted with the native PDGF
Substance: ^73R-K-I-E-I-V-R-K-K-P-I-F-K-K-A-T-V^89 (RKIEIVRKKPIFKKATV) [GP21a]

Substance: ANFLVW—EIVRKKP [literature peptide corresponding to PDGF-B chain residues 35-40 and 78-83]
- antagonist for PDGF [7]: effective as an antagonist for PDGF

Substance: Ac-^25I-S-R-R-L-I-D-R-T-N-A-N-F-L^38-(G-G-G-G-G-G)-^73R-K-I-E-I-V-R-K-K^81-C [GP14]
- inhibition of labelled PDGF binding to human smooth muscle cells [4]: potent inhibitors

Substance: PDGF: 28-31 KD dimeric, highly basic glycoprotein, mitogen for connective tissue cells
- SMC migration from the media to the intima [8]: 20 fold
- SMC proliferation in the media [8]: 2-3 fold
- healing of large bed sores [9]: stimulates the healing of large bed sores

— patent US6350731B1, “Platelet-derived growth factor analogues” (Trigen Limited, priority 1993, dated 2002)
